The results in this text go back to US9738720B2, “Monoclonal antibodies against HER2 epitope and methods of use thereof” (Mersana Therapeutics, Inc., priority 2014, dated 2017).

Data set [1] deals with SKBR3 cells. Put plainly: Internalization rate with anti-HER2 antibody combination. Format: cell-based. The procedure: For the assay, 40,000 SKBR3 cells were plated in DMEM media containing 10% FBS, in each well of three 96 well plates (black colored plates with clear bottomed wells) and allowed to attach overnight at 37° in 5% CO2. The next day the cells were treated with antibodies as follows. […] The unbound antibody was removed by washing the cells two times with ice cold media. For detection, 5 μg/ml of an Alexa 647 labelled anti-human IgG Fab fragment was added to each well in ice cold media and incubated on ice for 1 hr. The unbound secondary antibody was removed by washing each well 2 times with ice cold media. […] Each treatment was carried out in triplicate. One set of wells were treated with the Alexa 647 labelled anti-human IgG monovalent Fab fragment alone, and the fluorescence measured in these wells was used to subtract background fluorescence.
One plate was left on ice to determine the time 0 values for each treatment, and the other plates were incubated at 37° C. After 1.5 hours, one plate from 37° C., and the time 0 plate, were washed 2 times with ice cold PBS and scanned using the 680 nm channel of a Licor Odyssey scanner. The fluorescence measured in each well is used as the total fluorescence for each treatment. The cells were then acid washed 2 times with 100 mM glycine, 50 mM KCl, and 20 mM […], pH2.2, then washed two times with ice cold PBS to remove the surface bound antibodies. The plates were scanned again to determine the amount of internalized fluorescence in each well. The 24 hour plates were analyzed the same way the next day.

Data set [2] deals with T1, HER2 protein in SKBR3 cells (Homo sapiens, UniProt P04626).
T1 construct: endogenous in cells; host or cells: SKBR3
Put plainly: HER2 degradation, western analysis. Particulars: 4 hours; for HER2 remaining: 10 μg/ml each, combined with trastuzumab and pertuzumab; for full length HER2, percentage of untreated cells: 10 μg/ml, test antibody alone or in combination with trastuzumab. It counts as cell-based. The procedure: The effect of anti-HER2 antibodies on HER2 degradation in SKBR3 cells was determined by western analysis after antibody treatment. 300,000 SKBR3 cells were plated in DMEM media with 10% FBS in each well of 6 well culture dishes and grown overnight at 37° in 5% CO2 atmosphere. The media was removed and replaced with fresh media containing 10 μg/ml of each antibody and incubated for 4 hours. The cells were washed once with ice cold PBS and lysed by addition of 200 μl of buffer containing 50 mM Tris HCl, pH 7.4, 150 mM NaCl, 1% Triton X-100, cOmplete Protease Inhibitor cocktail tablets (Roche, Indianapolis, Ind.) and PhosSTOP phosphatase Inhibitor cocktail tablets (Roche, Indianapolis, Ind.). Lysates were centrifuged at 15,000 rpm for 15 minutes at 4° to remove insoluble debris. […] The separated proteins were transferred to a nitrocellulose membrane on a semi-dry electrophoretic transfer system (Bio-Rad, Transblot system) for 30 minutes at 10 volts in transfer buffer (Life Technologies, Cat.# NP0006) containing 10% methanol. […] After the incubation the membrane was washed 3 times with 10 ml TTBS and then incubated for 1 hour with secondary antibodies: a goat anti-rabbit IgG conjugated to IRdye® 800CW (Li-Cor, Cat.#926-32211) and a goat anti-mouse IgG conjugated to IRdye® 680RD (Li-Cor, Cat.#926-68070) both diluted 1:10,000 in blocking buffer. The membrane was again washed 3 times with 10 ml TTBS and scanned on a Li-Cor Odyssey scanner. The bands corresponding to full length HER2 protein and to actin were quantified using the scanner software. Each HER2 band was normalized to the actin band and expressed as a percentage of HER2 protein from cells that were not treated with any anti-HER2 antibodies.

In another data set the test system is H522 cells. In words: H522 mouse tumor xenograft model. Format: in vivo. Particulars: FIG. 15; Example 16E 5 mg/kg; Example 17B 5 mg/kg; Kadcyla 10 mg/kg; IV single dose.
The subject of a further data set is SKOV3 cells. Put plainly: SKOV3 mouse tumor xenograft model. Particulars: FIG. 16. Format: in vivo.
In a further data set the test system is TOV-21G cells. Put plainly: TOV-21G mouse tumor xenograft model. Format: in vivo. The following applies: FIG. 14; Example 16E 5 mg/kg or 2 mg/kg; Kadcyla 10 mg/kg; IV single dose. The source says: (§1) Tumor growth inhibition (% TGI) was defined as the percent difference in median tumor volumes (MTVs) between treated and control groups.
In a PR response, the tumor volume was 50% or less of its Day 1 volume for three consecutive measurements during the course of the study, and equal to or greater than 13.5 mm^3 for one or more of these three measurements. In a CR response, the tumor volume was less than 13.5 mm3 for three consecutive measurements during the course of the study. An animal with a CR response at the termination of a study was additionally classified as a tumor-free survivor (TFS). Animals were monitored for regression responses.
Female NCr nu/nu were inoculated subcutaneously with TOV-21G cells (n=10 for each group). Test compounds or vehicle were dosed IV as a single dose on day 1 or as indicated. Tumor size was measured at the times indicated in FIGS. 8 to 18 using digital calipers. Tumor volume was calculated and was used to determine the delay in tumor growth. Mice were sacrificed when tumors reached a size of 800 to 1500 mm^3. Tumor volumes are reported as the mean±SEM for each group.

The subject of another data set is SNU-5 cells. Put plainly: SNU5 mouse tumor xenograft model. It counts as in vivo. The following applies: FIG. 13.
The subject of a further data set is NCI-N87 cells. In words: NCI-N87 mouse tumor xenograft model. The following applies: FIG. 12; Example 16F […] single dose day 1; trastuzumab 15 mg/kg + pertuzumab 15 mg/kg weekly for 3 weeks. Format: in vivo.
The test system of a further data set is Calu-3 cells. Put plainly: Calu-3 mouse tumor xenograft model. Format: in vivo. Particulars: FIG. 17, 5 mg/kg IV single dose at day 1.
For another data set, the system named is BRE-0333 HER2 1+. Put plainly: BRE-0333 HER2 1+ patient derived xenograft model. Format: in vivo. Particulars: FIG. 18; 3 mg/kg IV single dose; n=8. The procedure:
as §1
(§2) Treatment efficacy was determined from the incidence and magnitude of regression responses of the tumor size observed during the study. […] In a PR response, the tumor volume was 50% or less of its Day 1 volume for three consecutive measurements during the course of the study, and equal to or greater than 13.5 mm^3 for one or more of these three measurements. In a CR response, the tumor volume was less than 13.5 mm3 for three consecutive measurements during the course of the study. An animal with a CR response at the termination of a study was additionally classified as a tumor-free survivor (TFS). Animals were monitored for regression responses.
In general terms: Xenograft models place foreign cells or tissue in a host animal.

In a further data set the test system is MAXF_1162 HER2 3+. In words: MAXF_1162 HER2 3+ patient derived xenograft model. The following applies: FIG. 19, n=10. It counts as in vivo. The procedure:
as §1, §2

Another data set relates to BT474 tumor fragments. In words: BT474 mouse tumor xenograft model. Format: in vivo. The following applies: FIG. 20; 5 mg/kg or 2 mg/kg IV single dose at day 1.
Data set [3] concerns low HER2-expressing breast and gastric cancer models. Put plainly: Low HER2-expressing breast and gastric cancer models. Format: in vivo. Particulars: conjugate single doses of 1 mg/kg or […]; Kadcyla at doses of 10 mg/kg and above.
For data set [4] the following is noted: in vivo.
Another data set relates to HER2-driven tumor models. In words: HER2-driven tumor models, combination with trastuzumab and pertuzumab. It counts as in vivo.
Data set [5] is described as follows: Pharmacokinetics and tolerability in non-human primates. Particulars: therapeutic doses.
Data set [6] has as its system SKBR3 cells. Put plainly: HER2 internalization in SKBR3 cells by fluorescence microscopy. It counts as cell-based. The following applies: 90 minutes, in combination with trastuzumab-Alexa-647 and pertuzumab. On the procedure:
The effect of a combination of anti-HER2 antibodies on the HER2 internalization in SKBR3 cells was investigated by fluorescence microscopy. […] SKBR3 cells were seeded in 4 chamber microscope slides and allowed to attach by overnight growth in DMEM media (ATCC, Manassas, Va., Cat.#30-2002) with 10% fetal bovine serum (FBS) (Gibco®, Life Technologies, Grand Island, N.Y., Cat.#16140-071) at 37° in 5% CO2. […] The location of trastuzumab was visualized using fluorescence microscope.

In data set [7] the test system is phosphorylated AKT in BT474 cells. In words: Ligand-independent HER2 signaling in BT474 cells, phospho-AKT western. Particulars: 10 μg/ml antibody, 4 hours, listed as HT19B. Format: cell-based.
Method: The effect of anti-HER2 antibodies on HER2 signaling in BT474 cells (ATCC, HTB-20) was determined by measuring changes in the amount of phosphorylated AKT after a 4 hour antibody treatment. BT474 cells (300,000 cells) were plated in DMEM media with 10% FBS in each well of 6 well culture dishes and grown overnight at 37° in 5% CO2 atmosphere. The media was removed and replaced with fresh media containing 10 μg/ml of test antibody and incubated for 4 hours. The cells were washed once with ice cold PBS and lysed by addition of 200 μl of buffer containing 50 mM Tris HCl, pH 7.4, 150 mM NaCl, 1% Triton X-100, cOmplete Protease Inhibitor cocktail tablets (Roche, Indianapolis, Ind.) and PhosSTOP phosphatase Inhibitor cocktail tablets (Roche, Indianapolis, Ind.). Lysates were centrifuged at 15,000 rpm for 15 minutes at 4° to remove insoluble debris. The levels of phosphorylated AKT were determined by western analysis. […] The bands corresponding to AKT, phospho-AKT, and to actin were quantified using the scanner software. Each phospho-AKT band was normalized to the total AKT band and expressed as a percentage of phospho-AKT protein from cells that were not treated with any anti-HER2 antibodies.
The mark [8] stands for this setting: with Trastuzumab and Pertuzumab, 0 hr.
The mark [9] stands for this setting: with Trastuzumab and Pertuzumab, 24 hrs.
Where [10] appears, read: with Trastuzumab and Pertuzumab, […].

Consider “XMT 1517: fully human anti-HER2 IgG1 monoclonal antibody, heavy chain SEQ ID NO: 1, light chain SEQ ID NO: 2”, for which the Percent internalized came out at 4% in the data set on SKBR3 cells [1] (antibody alone, 0 hr); 83% with SKBR3 cells [1] (antibody alone, 24 hrs); 11% with SKBR3 cells [1] (antibody alone, […]); 4% in the data set with SKBR3 cells [1] (setting [8]); 107% in the data set with SKBR3 cells [1] (setting [9]); 3% in the data set on SKBR3 cells [1] (with Trastuzumab, 0 hr). The Percent internalized stood at 106% in the data set on SKBR3 cells [1] (with Trastuzumab, 24 hrs) and 17% in the data set with SKBR3 cells [1] (with Trastuzumab, […]). The HER2 remaining in data set [2] is 40%.
For the substance “XMT 1518: affinity matured fully human anti-HER2 IgG1 antibody, heavy chain SEQ ID NO: 3, light chain SEQ ID NO: 4”, the Percent internalized with SKBR3 cells [1] (antibody alone, 24 hrs) is given as 88%; in the data set on SKBR3 cells [1] (antibody alone, […]), 16%; in the data set with SKBR3 cells [1] (setting [8]), 2%; in the data set with SKBR3 cells [1] (setting [10]) it was 90%; with SKBR3 cells [1] (with Trastuzumab, 0 hr) it was 2%; in the data set on SKBR3 cells [1] (with Trastuzumab, 24 hrs) it was 106%. Besides, the Percent internalized in the data set with SKBR3 cells [1] (with Trastuzumab, […]) turned out to be 41%. Moreover, the HER2 remaining in data set [2] was 20%. The “full length HER2, percentage of untreated cells” value in [2] was determined as 78%.
For “XMT 1519-(EG2-MI-(10 kDa PHF-BA-(AF-HPA-Ala))) [Example 16E]”, the tumor response result in the data set on H522 cells and in the data set with TOV-21G cells was “tumor retardation” in each case. The “complete responses (number of animals)” value in the data set with SKOV3 cells (5 mg/kg IV single dose, n=10) is 10. In the data set with SKOV3 cells (5 mg/kg IV single dose, n=10), the regressions worked out at 100%. The tumor free survivors in the data set with SNU-5 cells (2 mg/kg IV single dose) and in the data set on SNU-5 cells (5 mg/kg IV single dose) was 100% throughout.
Take “XMT 1519-(EG2-MI-(10 kDa PHF-BA-(AF-HPA-Ala))) [Example 16F]”: the “partial response out of ten” value in the data set on NCI-N87 cells was “one”. Also, the “remained tumor free (number of animals)” value in the data set with Calu-3 cells (Day 60) is on record as “six”. Moreover, in the data set with Calu-3 cells (n=10), the “complete responses (number of animals)” value is reported as “eight”, the “partial responses (number of animals)” value is given as “two” and the regression responses is on record as 100%.
For “XMT 1519-(EG2-MI-(10 kDa PHF-BA-(AF-HPA-Ala))) [Example 16H]”, the values for the tumor response entry in the data set on BRE-0333 HER2 1+ and in the data set with BT474 tumor fragments were “tumor retardation” and “complete tumor regressions”, respectively. For the same substance, the “regression responses and tumor free survivors” value in the data set with MAXF_1162 HER2 3+ (1 mg/kg IV single dose at day 1) and in the data set with MAXF_1162 HER2 3+ (3 mg/kg IV single dose at day 1) was 100% each time.
On to XMT 1519-(EG2-MI-(PHF-BA-(AF-HPA-Ala))), for which the tumor response entry in data set [3] was “complete regression”. For the same substance, in data set [4], the pharmacokinetic profile entry is “excellent pharmacokinetic profile”. In addition, in the data set on HER2-driven tumor models, the “efficacy in combination with trastuzumab and pertuzumab” value was “synergistic efficacy”. Moreover, the tolerability entry in data set [5] is given as “well tolerated”.
For “XMT 1519: fully human anti-HER2 IgG1 monoclonal antibody, heavy chain SEQ ID NO: 5, light chain SEQ ID NO: 6”, the Percent internalized in the data set on SKBR3 cells [1] (antibody alone, 0 hr) was 2%; with SKBR3 cells [1] (antibody alone, 24 hrs), 83%; in the data set with SKBR3 cells [1] (setting [8]) it was 2%; in the data set on SKBR3 cells [1] (setting [9]), 88%; in the data set with SKBR3 cells [1] (setting [10]) it was 83%; in the data set on SKBR3 cells [1] (with Trastuzumab, 0 hr), 2%. Moreover, the Percent internalized in the data set on SKBR3 cells [1] (with Trastuzumab, 24 hrs) is on record as 107%. Besides, the HER2 remaining in [2] worked out at 42%. In addition, the “effect on HER2 internalization and localization” value in the data set on SKBR3 cells [6] is “promotes the internalization and trafficking of HER2 to the lysosomes”.
As for “XMT 1520: affinity matured fully human anti-HER2 IgG1 antibody, heavy chain SEQ ID NO: 7, light chain SEQ ID NO: 8”, the Percent internalized with SKBR3 cells [1] (antibody alone, 0 hr) is 2%; in the data set on SKBR3 cells [1] (antibody alone, 24 hrs), 78%; in the data set with SKBR3 cells [1] (antibody alone, […]) it was 14%; with SKBR3 cells [1] (setting [8]) it was 3%; with SKBR3 cells [1] (setting [9]), 101%; in the data set on SKBR3 cells [1] (setting [10]), 89%. Moreover, the Percent internalized with SKBR3 cells [1] (with Trastuzumab, 0 hr) worked out at 2%; with SKBR3 cells [1] (with Trastuzumab, 24 hrs), 100%; with SKBR3 cells [1] (with Trastuzumab, […]), 23%. Also, the HER2 remaining in data set [2] was 31%. The “full length HER2, percentage of untreated cells” value in data set [2] stood at 68%. The “AKT phosphorylation, percentage of untreated cells” value in data set [7] is reported as “about 30%”.
As to “rituximab-(EG2-MI-(10 kDa PHF-BA-(AF-HPA-Ala))) [Example 17B, reference compound]”, the tumor response entry is “did not attain the threshold for therapeutic activity” in the data set on H522 cells and “did not attain the threshold for therapeutic activity” in the data set on SKOV3 cells (Kadcyla 10 mg/kg, Example 17B 5 mg/kg, IV single dose).
